From ChEMBL document CHEMBL1201862, “PubChem BioAssay data set” (2004)
The source made the active and inactive calls.

What was measured:
[1] = alpha-synuclein stem-loop luciferase translation blockers – H4 neuroglioma cells, luminescence, confirmation (AID 1988); type: functional, cell-based
[2] = Luminescence Cell-Based Dose Response HTS to Identify Inhibitors of 5'UTR Stem-Loop Driven Prion Protein mRNA Translation in H4 Neuroglioblastoma Cells. [Related pubchem assays: 1827 (Project Summary), 1813 (Primary HTS)]; type: functional
[3] = HEK-293T viability loss after treatment – luminescence, T-cell screen hits, cytotoxicity control for TCR NF-kB inhibitor project, dose response (AID 489026); type: functional, cell-based;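 note: cells exposed to compound about 14 hours before the viability readout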
[4] = alpha-synuclein stem-loop translation blockers – luminescence, H4 neuroglioblastoma cells, dose confirmation, confirmation (AID 2454); type: functional, cell-based;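 note: H4 neuroglioblastoma cells carrying an alpha-synuclein 5'UTR luciferase reporter; potency for inhibition of the luciferase signal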
[5] = Trypanosoma cruzi growth suppression in host cells – NIH3T3 host cells, beta-gal luminescence, confirmation (AID 2044); type: functional, cell-based;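 note: intracellular parasites grown in NIH/3T3 mouse fibroblasts as host cells; luminescent beta-galactosidase reporter signal from transgenic T. cruzi replicating inside host cells; inhibitors lower the luminescence signal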
[6] = cells; type: functional, cell-based
[7] = luciferase reporter signal reduction – luminescence, H4-C neuroglioblastoma cells, dose response (AID 2458); type: functional, cell-based;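 note: H4 neuroglioblastoma cells stably carrying a luciferase reporter gene fusion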
[8] = NIH3T3 cell viability loss – ATP luminescence, mouse fibroblasts, counter-screen, dose response (AID 2010); type: functional, cell-based;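 note: cells exposed to compound for about 90 hours before reading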
[9] = luciferase reporter signal suppression in cells – H4 neuroglioma cells, luminescence, dose response (AID 1990); type: functional, cell-based
[10] = target: Lysosomal acid glucosylceramidase (Homo sapiens, UniProt P04062); assay: Dose response cell-based high throughput screening assay to identify enhancers of beta-glucosidase activity. [Related pubchem assays: 784 ]; type: functional
[11] = target: Polyadenylate-binding protein 1 (Homo sapiens, UniProt P11940); assay: PABP inhibition in translation initiation, SAR follow-up (AID 435018); type: functional
[12] = target: Eukaryotic translation initiation factor 4H (Homo sapiens, UniProt Q15056); assay: inhibitors of translation initiation factor eIF4H – SAR follow-up (AID 435011); type: functional
[13] = target: T1, Alkaline phosphatase, tissue-nonspecific isozyme (Homo sapiens, UniProt P05186)
T1 sequence (P05186 whole entry): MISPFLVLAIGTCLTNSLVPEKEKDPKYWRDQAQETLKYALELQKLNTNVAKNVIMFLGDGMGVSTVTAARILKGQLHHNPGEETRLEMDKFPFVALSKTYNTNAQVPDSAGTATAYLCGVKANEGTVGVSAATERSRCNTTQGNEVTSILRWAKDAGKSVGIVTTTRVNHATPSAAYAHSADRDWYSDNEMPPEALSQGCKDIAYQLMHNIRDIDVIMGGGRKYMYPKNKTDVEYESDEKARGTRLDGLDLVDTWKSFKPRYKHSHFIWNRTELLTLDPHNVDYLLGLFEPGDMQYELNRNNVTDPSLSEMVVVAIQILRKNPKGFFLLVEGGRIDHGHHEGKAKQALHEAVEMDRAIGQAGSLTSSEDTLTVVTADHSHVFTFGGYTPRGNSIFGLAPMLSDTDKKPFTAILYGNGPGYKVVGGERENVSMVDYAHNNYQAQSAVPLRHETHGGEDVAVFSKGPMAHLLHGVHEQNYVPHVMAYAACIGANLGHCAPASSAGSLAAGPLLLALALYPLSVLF

[14] = target: Neurotensin receptor type 1 (Homo sapiens, UniProt P30989); type: functional;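 note: Image-based confirmatory dose-response assay measuring agonist activity at NTR1; NTR1-expressing U2OS osteosarcoma cells imaged for beta-arrestin GFP spot formation; agonist potency where compounds increase beta-arrestin recruitment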
[15] = target: NS3 (Hepatitis C virus, UniProt A3EZJ3); assay: PubChem AID 2173; parameters: species or system Hepacivirus hominis
[16] = target: T2, Carboxy-terminal domain RNA polymerase II polypeptide A small phosphatase 1 (Homo sapiens, UniProt Q9GZU7); assay: CTDSP1 inhibitors, concentration-response, biochemical, absorbance readout, ultra-high-throughput screen actives (AID 540297); type: functional
T2 sequence (Q9GZU7 whole entry): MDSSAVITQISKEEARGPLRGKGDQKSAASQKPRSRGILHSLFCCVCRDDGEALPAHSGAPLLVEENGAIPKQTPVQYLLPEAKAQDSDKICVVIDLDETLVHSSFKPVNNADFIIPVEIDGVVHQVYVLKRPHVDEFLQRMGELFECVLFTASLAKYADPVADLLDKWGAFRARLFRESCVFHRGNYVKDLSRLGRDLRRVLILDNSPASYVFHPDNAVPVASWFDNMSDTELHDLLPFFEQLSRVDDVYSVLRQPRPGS

[17] = target: 1-acylglycerol-3-phosphate O-acyltransferase ABHD5/Perilipin-5 (Homo sapiens, UniProt Q00G26+Q8WTS1); assay: Luminescence-based biochemical high throughput dose response assay for inhibitors of the interaction of the lipase co-activator protein, abhydrolase domain containing 5 (ABHD5) with perilipin-5 (MLDP; PLIN5) (2K validation set). [Related pubchem assays (depositor defined):AID493035, AID493241]
[18] = target: Perilipin-1/ABHD5 (Homo sapiens, UniProt O60240+Q8WTS1); assay: Luminescence-based biochemical high throughput dose response assay for inhibitors of the interaction of the lipase co-activator protein, abhydrolase domain containing 5 (ABHD5) with perilipin-1 (PLIN1) (2K validation set). [Related pubchem assays (depositor defined):AID493027, AID493057]
[19] = target: Alkaline phosphatase, placental type (Homo sapiens, UniProt P05187); assay: human placental alkaline phosphatase inhibition – biochemical, luminescence, confirmation (AID 1512); type: functional
[20] = target: T1, Alkaline phosphatase, tissue-nonspecific isozyme; assay: potency against alkaline phosphatase TNAP – biochemical, luminescent, dose response, SAR follow-up (AID 1056)
[21] = target: Glyceraldehyde-3-phosphate dehydrogenase (Homo sapiens, UniProt P04406)
[22] = target: T3, Aminopeptidase N (Plasmodium falciparum FcB1/Columbia, UniProt O96935); assay: malaria alanyl aminopeptidase activity blockers – biochemical, fluorogenic H-Leu-NHMec substrate, 1536-well (AID 1445); parameters: species or system Plasmodium falciparum 3D7, 3D7
T3 sequence (O96935 whole entry): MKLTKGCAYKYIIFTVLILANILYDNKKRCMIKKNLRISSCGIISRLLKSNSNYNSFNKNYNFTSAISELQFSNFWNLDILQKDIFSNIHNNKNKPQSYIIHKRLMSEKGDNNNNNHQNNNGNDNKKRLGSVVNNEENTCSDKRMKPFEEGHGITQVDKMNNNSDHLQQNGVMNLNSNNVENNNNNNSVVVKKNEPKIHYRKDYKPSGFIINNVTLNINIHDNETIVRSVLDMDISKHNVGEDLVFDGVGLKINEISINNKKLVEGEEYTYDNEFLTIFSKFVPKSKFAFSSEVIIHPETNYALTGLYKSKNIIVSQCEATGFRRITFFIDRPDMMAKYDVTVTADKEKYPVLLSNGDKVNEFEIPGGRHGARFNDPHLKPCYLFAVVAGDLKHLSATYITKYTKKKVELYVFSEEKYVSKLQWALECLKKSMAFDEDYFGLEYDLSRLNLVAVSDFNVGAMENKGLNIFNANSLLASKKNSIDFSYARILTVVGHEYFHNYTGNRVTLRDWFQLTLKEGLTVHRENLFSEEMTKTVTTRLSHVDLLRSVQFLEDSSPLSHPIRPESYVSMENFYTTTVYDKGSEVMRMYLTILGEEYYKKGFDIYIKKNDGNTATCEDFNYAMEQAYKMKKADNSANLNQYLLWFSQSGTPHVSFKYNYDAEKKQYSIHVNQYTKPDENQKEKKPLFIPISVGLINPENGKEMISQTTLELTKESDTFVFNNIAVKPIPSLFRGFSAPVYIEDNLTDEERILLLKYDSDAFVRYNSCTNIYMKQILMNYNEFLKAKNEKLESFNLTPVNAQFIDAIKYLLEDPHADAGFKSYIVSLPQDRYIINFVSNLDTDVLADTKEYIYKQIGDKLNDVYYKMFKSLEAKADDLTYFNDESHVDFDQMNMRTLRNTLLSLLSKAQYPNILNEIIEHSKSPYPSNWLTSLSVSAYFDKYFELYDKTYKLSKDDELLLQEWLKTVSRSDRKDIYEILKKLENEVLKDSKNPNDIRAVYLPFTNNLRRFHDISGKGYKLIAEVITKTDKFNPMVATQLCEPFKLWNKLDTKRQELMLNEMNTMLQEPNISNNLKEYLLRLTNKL

[23] = system: Streptococcus sp. 'group A'; assay: Streptococcus pyogenes SK(-)GAS viability under kanamycin – luminescence, BacTiterGlo, confirmation, counter-screen for streptokinase expression inhibitor project, dose response (AID 1900); type: functional, organism-based
[24] = target: T4, Zinc finger protein mex-5 (Caenorhabditis elegans, UniProt Q9XUB2); assay: potency of MEX-5 RNA-binding blockers – biochemical, C. elegans, fluorescence polarization, dose response (AID 1960)
T4 sequence (Q9XUB2 whole entry): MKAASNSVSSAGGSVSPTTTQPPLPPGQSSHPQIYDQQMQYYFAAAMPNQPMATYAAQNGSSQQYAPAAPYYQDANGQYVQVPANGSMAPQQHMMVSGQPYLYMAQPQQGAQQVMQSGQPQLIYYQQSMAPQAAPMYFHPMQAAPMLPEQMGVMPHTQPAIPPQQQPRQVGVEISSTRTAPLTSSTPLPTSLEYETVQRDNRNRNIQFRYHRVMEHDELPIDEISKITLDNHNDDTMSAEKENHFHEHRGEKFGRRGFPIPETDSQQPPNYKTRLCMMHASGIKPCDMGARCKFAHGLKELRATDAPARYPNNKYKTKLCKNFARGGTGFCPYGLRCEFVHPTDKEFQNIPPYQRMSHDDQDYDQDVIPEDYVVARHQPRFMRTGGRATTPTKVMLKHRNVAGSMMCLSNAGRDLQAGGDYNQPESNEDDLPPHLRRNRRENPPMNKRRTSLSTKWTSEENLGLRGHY

[25] = target: Induced myeloid leukemia cell differentiation protein Mcl-1 (Homo sapiens, UniProt Q07820); type: functional
[26] = CCR5-tropic HIV-1 fusion blockers – cell-based, CCR5-tropic Env, dose response (AID 2279); type: functional
[27] = system: Streptococcus; assay: GAS UMAA2166 growth inhibition – luminescence, BacTiterGlo, counter-screen for streptokinase expression inhibitor project, dose response (AID 1915); type: functional, organism-based;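 note: potency for reduction of bacterial viability or growth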
[28] = target: T5, RNA-binding protein pos-1 (Caenorhabditis elegans, UniProt G5EF15); assay: disruptors of C. elegans POS-1 RNA interaction – biochemical, fluorescence polarization, dose response (AID 1964);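 note: purified POS-1 fused to maltose binding protein made in E. coli; potency of compounds blocking POS-1 binding to fluorescent RNA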
T5 sequence (G5EF15 whole entry): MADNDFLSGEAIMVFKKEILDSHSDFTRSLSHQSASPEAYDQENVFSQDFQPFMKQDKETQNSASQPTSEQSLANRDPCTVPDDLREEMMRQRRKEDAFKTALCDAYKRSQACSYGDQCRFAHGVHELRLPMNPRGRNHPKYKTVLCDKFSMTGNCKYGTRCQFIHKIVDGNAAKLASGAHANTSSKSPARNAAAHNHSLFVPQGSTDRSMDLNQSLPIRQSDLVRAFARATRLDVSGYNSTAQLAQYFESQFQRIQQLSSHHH

Sequence of Perilipin-1/ABHD5 (Q8WTS1 whole entry, the tested form may be a part): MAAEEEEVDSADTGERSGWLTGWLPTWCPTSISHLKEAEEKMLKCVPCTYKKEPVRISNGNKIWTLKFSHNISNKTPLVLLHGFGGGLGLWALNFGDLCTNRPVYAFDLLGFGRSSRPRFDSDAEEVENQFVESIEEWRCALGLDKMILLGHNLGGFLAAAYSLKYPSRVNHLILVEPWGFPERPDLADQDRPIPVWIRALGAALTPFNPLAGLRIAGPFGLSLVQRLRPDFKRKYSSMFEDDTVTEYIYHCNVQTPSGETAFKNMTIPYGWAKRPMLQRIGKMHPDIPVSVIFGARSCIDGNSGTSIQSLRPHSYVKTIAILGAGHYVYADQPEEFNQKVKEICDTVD
Sequence of Perilipin-1/ABHD5 (O60240 whole entry, the tested form may be a part): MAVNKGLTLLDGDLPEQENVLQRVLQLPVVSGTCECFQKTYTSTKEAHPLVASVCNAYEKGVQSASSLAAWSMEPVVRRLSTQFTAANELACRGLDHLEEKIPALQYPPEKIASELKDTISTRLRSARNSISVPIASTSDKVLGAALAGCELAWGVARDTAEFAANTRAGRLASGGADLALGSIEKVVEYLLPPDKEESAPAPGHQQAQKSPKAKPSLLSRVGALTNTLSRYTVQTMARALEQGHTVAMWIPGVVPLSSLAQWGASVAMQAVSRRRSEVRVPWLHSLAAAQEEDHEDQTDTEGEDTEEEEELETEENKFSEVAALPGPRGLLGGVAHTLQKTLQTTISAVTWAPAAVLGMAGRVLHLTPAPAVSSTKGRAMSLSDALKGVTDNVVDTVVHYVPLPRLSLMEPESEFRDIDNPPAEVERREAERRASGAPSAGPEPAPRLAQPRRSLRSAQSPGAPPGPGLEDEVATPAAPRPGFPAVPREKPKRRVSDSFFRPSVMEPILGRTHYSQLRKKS
Sequence of 1-acylglycerol-3-phosphate O-acyltransferase ABHD5/Perilipin-5 (Q00G26 whole entry, the tested form may be a part): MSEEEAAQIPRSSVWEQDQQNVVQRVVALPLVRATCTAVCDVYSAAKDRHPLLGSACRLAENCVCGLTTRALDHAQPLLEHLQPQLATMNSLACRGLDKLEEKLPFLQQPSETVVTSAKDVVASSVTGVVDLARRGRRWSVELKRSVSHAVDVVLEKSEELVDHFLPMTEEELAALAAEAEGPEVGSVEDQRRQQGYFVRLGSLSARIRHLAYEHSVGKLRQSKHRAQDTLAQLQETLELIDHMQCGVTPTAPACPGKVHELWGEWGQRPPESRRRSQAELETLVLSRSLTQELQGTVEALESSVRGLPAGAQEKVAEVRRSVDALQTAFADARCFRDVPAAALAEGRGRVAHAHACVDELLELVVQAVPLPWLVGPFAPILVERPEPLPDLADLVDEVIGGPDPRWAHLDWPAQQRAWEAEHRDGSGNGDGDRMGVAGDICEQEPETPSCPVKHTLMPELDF
Sequence of 1-acylglycerol-3-phosphate O-acyltransferase ABHD5/Perilipin-5 (Q8WTS1 whole entry, the tested form may be a part): as the sequence (Q8WTS1 whole entry, the tested form may be a part) above
Sequence of NS3 (A3EZJ3 whole entry, the tested form may be a part): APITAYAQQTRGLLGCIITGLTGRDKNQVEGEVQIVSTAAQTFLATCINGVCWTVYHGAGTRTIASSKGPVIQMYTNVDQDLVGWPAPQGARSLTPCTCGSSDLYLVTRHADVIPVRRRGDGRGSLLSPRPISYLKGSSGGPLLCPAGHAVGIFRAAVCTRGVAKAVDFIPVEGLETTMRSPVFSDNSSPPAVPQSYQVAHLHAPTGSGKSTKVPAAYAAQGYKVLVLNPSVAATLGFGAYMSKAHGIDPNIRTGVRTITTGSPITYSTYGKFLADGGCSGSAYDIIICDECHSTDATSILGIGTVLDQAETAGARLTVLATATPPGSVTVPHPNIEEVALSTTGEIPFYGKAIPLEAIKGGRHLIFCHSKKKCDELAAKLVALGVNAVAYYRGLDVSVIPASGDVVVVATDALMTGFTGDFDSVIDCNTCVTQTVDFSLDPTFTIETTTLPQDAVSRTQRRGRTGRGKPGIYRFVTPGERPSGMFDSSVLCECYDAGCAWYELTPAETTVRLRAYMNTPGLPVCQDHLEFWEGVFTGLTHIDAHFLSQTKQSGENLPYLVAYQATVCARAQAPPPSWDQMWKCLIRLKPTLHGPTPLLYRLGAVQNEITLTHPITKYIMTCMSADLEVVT
Sequence of Glyceraldehyde-3-phosphate dehydrogenase (P04406 whole entry): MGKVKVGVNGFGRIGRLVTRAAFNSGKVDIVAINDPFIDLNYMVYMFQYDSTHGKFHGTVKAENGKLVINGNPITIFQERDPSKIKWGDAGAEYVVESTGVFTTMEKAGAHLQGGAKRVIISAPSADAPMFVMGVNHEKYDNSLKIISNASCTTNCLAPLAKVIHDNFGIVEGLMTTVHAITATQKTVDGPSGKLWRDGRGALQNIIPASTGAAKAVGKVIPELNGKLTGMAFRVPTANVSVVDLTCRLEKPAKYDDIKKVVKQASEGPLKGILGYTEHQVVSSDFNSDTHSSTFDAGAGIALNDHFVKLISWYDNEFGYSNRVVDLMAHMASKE
Sequence of Alkaline phosphatase, placental type (P05187 whole entry): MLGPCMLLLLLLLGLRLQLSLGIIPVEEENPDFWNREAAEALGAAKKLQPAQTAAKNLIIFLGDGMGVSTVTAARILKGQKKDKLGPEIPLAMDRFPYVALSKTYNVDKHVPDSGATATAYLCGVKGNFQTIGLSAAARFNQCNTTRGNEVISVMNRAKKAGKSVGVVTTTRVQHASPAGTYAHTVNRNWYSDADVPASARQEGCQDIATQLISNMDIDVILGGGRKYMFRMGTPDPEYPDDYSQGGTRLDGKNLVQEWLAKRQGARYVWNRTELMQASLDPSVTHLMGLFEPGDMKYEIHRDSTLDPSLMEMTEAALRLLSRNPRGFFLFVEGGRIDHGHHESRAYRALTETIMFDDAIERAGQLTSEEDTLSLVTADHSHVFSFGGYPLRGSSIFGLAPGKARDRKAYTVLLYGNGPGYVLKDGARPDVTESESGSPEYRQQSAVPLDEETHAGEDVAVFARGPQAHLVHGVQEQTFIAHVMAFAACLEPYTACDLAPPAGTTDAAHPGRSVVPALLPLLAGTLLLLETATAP
Sequence of Neurotensin receptor type 1 (P30989 whole entry): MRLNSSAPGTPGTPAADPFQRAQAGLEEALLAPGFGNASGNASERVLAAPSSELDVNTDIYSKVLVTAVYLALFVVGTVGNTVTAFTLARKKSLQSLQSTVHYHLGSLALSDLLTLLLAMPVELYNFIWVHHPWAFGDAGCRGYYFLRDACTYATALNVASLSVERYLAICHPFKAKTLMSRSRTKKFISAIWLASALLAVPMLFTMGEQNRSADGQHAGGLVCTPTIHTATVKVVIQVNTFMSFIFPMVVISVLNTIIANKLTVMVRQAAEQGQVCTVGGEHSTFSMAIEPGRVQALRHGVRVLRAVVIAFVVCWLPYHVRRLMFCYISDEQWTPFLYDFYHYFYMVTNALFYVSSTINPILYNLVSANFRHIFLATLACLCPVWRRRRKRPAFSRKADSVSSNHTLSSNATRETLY
Sequence of Polyadenylate-binding protein 1 (P11940 whole entry): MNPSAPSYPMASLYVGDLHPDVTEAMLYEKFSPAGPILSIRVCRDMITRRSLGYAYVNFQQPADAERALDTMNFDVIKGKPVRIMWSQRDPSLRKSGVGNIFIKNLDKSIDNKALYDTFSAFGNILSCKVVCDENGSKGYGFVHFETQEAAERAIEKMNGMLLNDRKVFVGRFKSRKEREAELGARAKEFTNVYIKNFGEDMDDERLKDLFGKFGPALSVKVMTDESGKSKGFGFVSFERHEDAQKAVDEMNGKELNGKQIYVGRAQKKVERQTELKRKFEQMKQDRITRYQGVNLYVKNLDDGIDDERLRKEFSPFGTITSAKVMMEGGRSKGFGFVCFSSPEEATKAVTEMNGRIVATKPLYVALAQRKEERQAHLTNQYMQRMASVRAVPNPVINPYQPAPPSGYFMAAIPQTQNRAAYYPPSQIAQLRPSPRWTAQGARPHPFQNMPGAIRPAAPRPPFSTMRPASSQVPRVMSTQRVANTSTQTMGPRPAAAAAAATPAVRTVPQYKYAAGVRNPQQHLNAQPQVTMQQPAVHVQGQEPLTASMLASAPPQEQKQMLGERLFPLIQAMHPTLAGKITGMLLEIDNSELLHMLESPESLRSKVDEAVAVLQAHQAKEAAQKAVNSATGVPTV
Sequence of Lysosomal acid glucosylceramidase (P04062 whole entry): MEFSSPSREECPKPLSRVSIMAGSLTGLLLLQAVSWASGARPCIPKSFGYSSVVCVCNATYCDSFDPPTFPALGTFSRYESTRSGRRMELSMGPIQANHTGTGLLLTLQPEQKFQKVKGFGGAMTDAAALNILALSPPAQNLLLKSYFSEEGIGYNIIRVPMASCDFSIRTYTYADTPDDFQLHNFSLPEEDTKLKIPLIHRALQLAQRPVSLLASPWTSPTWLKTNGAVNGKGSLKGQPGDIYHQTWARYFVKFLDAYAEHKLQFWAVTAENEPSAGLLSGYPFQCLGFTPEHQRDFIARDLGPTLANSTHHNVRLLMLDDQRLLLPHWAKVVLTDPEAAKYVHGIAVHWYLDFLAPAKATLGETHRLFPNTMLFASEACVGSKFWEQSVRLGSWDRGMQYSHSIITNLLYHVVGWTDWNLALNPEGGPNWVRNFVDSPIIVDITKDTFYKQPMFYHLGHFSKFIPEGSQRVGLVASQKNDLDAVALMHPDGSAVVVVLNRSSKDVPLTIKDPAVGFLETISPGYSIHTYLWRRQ

CC(=O)O[C@@]12CO[C@@H]1C[C@H](O)[C@@]1(C)C(=O)[C@H](O)C3=C(C)[C@@H](OC(=O)[C@H](O)[C@@H](NC(=O)c4ccccc4)c4ccccc4)C[C@@](O)([C@@H](OC(=O)c4ccccc4)C12)C3(C)C (some centres undefined)
EC50 [1]: < 0.1 µM (active) | EC50 [2]: > 120 µM (not active) | IC50 [3]: > 80 µM (inactive) | EC50 [4]: 1.16 µM (active) | EC50 [5]: 0.132 µM (active) | EC50 [6]: 1.78 µM (active) | EC50 [7]: 1.21 µM (active) | EC50 [8]: 6.71 µM (active) | EC50 [9]: 9.95 µM (active)

CCCCN(C)C(=O)CCCCn1c(=O)[nH]c2cc(OCC)c(OCC)cc2c1=O
EC50 [10]: > 10 µM (not active)

O=C(CSc1ccc(-c2ccco2)nn1)NCCc1ccccc1
IC50 [11]: > 100 µM (inactive) | IC50 [12]: 95.2 µM (active)

CC1Cc2ccccc2N1C(=O)COc1nc2ccccc2nc1N1CCOCC1 (centres undefined)
EC50 [13]: > 100 µM (not active)

CCN(CC)c1nc2cc(OC)ccc2cc1C#N
EC50 [10]: > 10 µM (not active)

COC(=O)c1ccc2c(=O)n(CCCCCC(=O)N3CCN(c4ccccc4)CC3)c(=O)[nH]c2c1
EC50 [14]: 17.6 µM (active)

N#C/C(=C\c1ccc(OCc2ccc(C(=O)O)cc2)cc1)C(=O)NCc1ccccc1
IC50 [15]: 7.07 µM (active) | IC50 [16]: 7.1 µM (active)

Cc1cccc(-n2c(CNC(=O)c3cccc([N+](=O)[O-])c3C)n[nH]c2=S)c1
EC50 [13]: > 100 µM (not active)

COc1ccc2c(c1)C=CC1(O2)N(CCO)c2ccccc2C1(C)C (centres undefined)
IC50 [17]: 6.97 µM (active) | IC50 [18]: 7.1 µM (active)

COC(=O)c1sc(N2C(=O)C(O)=C(C(=O)c3ccc(C)o3)C2c2cc(OC)ccc2OC)nc1C (centres undefined)
IC50 [15]: 5.66 µM (active)

COc1ccccc1Cc1nc(N)nn1-c1ccccc1
IC50 [19]: > 100 µM (inactive) | IC50 [20]: > 100 µM (inactive) | IC50 [21]: > 100 µM (not active)

O=C(O)c1cc(-c2ccc(Cl)cc2Cl)[nH]n1
IC50 [19]: > 100 µM (inactive) | IC50 [20]: 0.392 µM (active) | IC50 [21]: > 100 µM (not active)

COc1ccc(/C=C\C(=O)c2c(O)ccc3c(C)cc(=O)oc23)cc1OC
IC50 [17]: 8.91 µM (active) | IC50 [18]: 4.46 µM (active)

O=C1c2ccc(Cl)cc2S(=O)(=O)c2cccc(C(=O)N3CCC(Cc4ccccc4)CC3)c21
EC50 [14]: 16.6 µM (active)

Cc1ccccc1NC(=O)C1CCN(C(=O)c2cccs2)CC1
IC50 [11]: > 100 µM (inactive) | IC50 [12]: > 100 µM (inactive)

O=c1cc(-c2ccccc2Cl)oc2c(NS(=O)(=O)c3cc(Cl)cc(Cl)c3O)ccc(O)c12
IC50 [22]: 51.6 µM (active) | EC50 [23]: 1 µM (active) | EC50 [24]: 4.54 µM (inconclusive) | IC50 [25]: 3.4 µM (active) | IC50 [26]: 4.77 µM (active) | EC50 [27]: 2.26 µM (active) | EC50 [28]: > 300 µM (not active)
